Experimental data as given in patent US11827624B2, “Covalent immune recruiter compounds for immune cell recognition and associated uses” (McMaster University, priority 2020, dated 2023).

System: PSMA+HEK cells
Test: Two-colour flow cytometry ADCP (CD64) assay with mmAb on PSMA+HEK cells
Format: cell-based, human
Source text: ADCP flow cytometry experiments were run on a BD LSRII Flow Cytometer. The human IgG isotype control used was purchased from Jackson ImmunoResearch (009-000-003). The human IgG1 monoclonal anti-DNP antibody (mAb) was purchased from acrobiosystems (DNP-M2). PSMA expression was confirmed with an anti-PSMA antibody Alexa 647 conjugate (Novus Biologicals, Catalog #FAB4234R). For PSMA competition controls, PMPA was purchased from Sigma (SML1612). Hek-293T (PSMA+/−) cell lines were generously given by Dr. Cyril Barinka (Institute of Biotechnology CAS, Czech Republic). U937 cells were generously given by Dr. John Valliant (McMaster University, Canada). LNCaP cells were generously given by Dr. Karen Mossman (McMaster University, Canada). IFN-γ was purchased from Fischer Scientific (PHC4031). Ultra low IgG FBS was purchased from Fischer Scientific (A3381901). RPMI-1640 was purchased as a powder from Fischer Scientific (31800089) and resuspended. DMEM was purchased as a powder from Fischer Scientific (12800082) and resuspended. […]
For preparation of effector monocytes, 24 hours prior to inducing phagocytosis U937 monocytes were seeded at 500,000 cells/mL and activated with IFN-γ ([…]). After incubation, these cells were then counted and washed twice with serum free assay media (neat RPMI). […] These cells were then counted and washed twice with serum free assay media (neat RPMI). […]

Q: For O=C(O)CC[C@H](NC(=O)N[C@@H](CCCCNC(=O)NCCOCCOCCOCCOCCOCCOCCOCCOC(=O)n1cnc(CCNC(=O)CNc2ccc([N+](=O)[O-])cc2[N+](=O)[O-])c1)C(=O)O)C(=O)O [CIR 3], which “CD64 based target immune recognition (phagocytosis)” value is on record?
A: Its value is “only provided a functional enhancement relative to ARM 11 at low antibody concentrations”.
